Patent US20260176320A1, “MODULATORS OF G-PROTEIN COUPLED RECEPTORS” (priority 2018, published 2026)
Read-outs that look alike come from different tables or passages of the source.

Key:
GLP-1R = GLP-1R (Homo sapiens, UniProt P43220); assay: HitHunter cAMP assay (GLP-1R); type: cell-based; conditions: cAMP; for Emax: read-out: (Emax) GLP-1R; for EC50: read-out: EC50 GLP-1R/nM
Description: (§1) Suspension cells were harvested and resuspended in 1×HBSS (+10 mM HEPES, 625 μM IBMX, 0.2% BSA) according to the following procedure: 5 μL of 2× cell suspension+1× antibody were added to each well, where the optimal cell density was 10,000 cells per well in a low volume 384-well plate. Agonist serial dilutions in a separate 384 well dilution plate in a 22-point series of 2× dilutions of agonist in DMSO were performed as follows. 80 μL of the highest concentration of Agonist/DMSO was added to well No. 1. 40 μL was removed from well No. 1 and added it to well No. 2, followed by gentle mixing. […] This process was repeated until well No. 22. Additional serial dilutions for additional agonists were set up in a similar manner. 50 nL of each 2× agonist serial dilution was added in duplicate to the designated agonist rows of the assay plate using the Labcyte ECHO. Assay plate was incubated for 30 minutes at room temperature. Following agonist incubation, 5 μL of cAMP Antibody Reagent was added to all wells. […] Plates were spun down briefly. Assay plate was incubated for 1 hour at room temperature in the dark for the immunocompetition reaction to occur. […] Plates were spun down briefly. Assay plate was incubated O/N at room temperature in the dark. Samples were read on Tecan i-control plate reader using luminescence mode with 300 ms integration time. Data analysis was performed using GraphPad Prism.

GIP-R = biological target: T1, GIP-R (Homo sapiens, UniProt P48546); assay: HitHunter cAMP assay (GIP-R); type: cell-based; conditions: cAMP; for Emax: read-out: (Emax) GIP-R; for EC50: read-out: EC50 GIP-R/nM
T1 sequence (P48546 22-466): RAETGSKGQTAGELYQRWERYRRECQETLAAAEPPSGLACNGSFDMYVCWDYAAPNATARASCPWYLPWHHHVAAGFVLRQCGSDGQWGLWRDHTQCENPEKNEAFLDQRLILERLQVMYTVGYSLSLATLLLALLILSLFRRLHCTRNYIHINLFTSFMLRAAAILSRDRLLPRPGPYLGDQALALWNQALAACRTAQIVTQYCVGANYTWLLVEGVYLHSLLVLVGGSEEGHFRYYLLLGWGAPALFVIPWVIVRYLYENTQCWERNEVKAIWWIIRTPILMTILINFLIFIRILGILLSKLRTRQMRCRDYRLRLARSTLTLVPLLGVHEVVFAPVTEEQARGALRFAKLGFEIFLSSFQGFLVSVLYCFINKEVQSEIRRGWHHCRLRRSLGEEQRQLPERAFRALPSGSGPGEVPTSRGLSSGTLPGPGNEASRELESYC
Description: as §1

Sequence of GLP-1R (P43220 24-463): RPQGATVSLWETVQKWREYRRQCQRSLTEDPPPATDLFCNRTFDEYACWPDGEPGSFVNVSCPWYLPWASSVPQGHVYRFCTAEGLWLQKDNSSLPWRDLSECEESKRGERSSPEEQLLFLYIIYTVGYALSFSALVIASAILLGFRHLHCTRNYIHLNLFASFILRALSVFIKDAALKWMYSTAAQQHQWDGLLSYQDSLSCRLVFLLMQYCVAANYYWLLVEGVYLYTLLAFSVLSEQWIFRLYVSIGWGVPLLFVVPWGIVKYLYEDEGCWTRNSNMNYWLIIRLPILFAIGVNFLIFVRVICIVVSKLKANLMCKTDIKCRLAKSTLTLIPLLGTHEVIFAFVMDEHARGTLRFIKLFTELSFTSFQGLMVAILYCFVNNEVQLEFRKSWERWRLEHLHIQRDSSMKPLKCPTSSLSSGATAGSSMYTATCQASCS

SMILES	Emax (GLP-1R; Table 3) [%]	Emax (GLP-1R; Table 3A) [%]	Emax (GIP-R; Table 3) [%]	Emax (GIP-R; Table 3A) [%]	EC50 (GLP-1R; Table 3A) [nM]	EC50 (GIP-R; Table 3A) [nM]	EC50 (GLP-1R; Table 3) [nM]	EC50 (GIP-R; Table 3) [nM]
CCCCCCCCCCCCCCCC(=O)N[C@@H](CCC(=O)NCCCC[C@H](NC(=O)[C@H](CO)NC(=O)[C@@H]1CCCN1C(=O)[C@@H]1CCCN1C(=O)[C@@H]1CCCN1C(=O)[C@H](C)NC(=O)CNC(=O)[C@H](CO)NC(=O)[C@H](CO)NC(=O)[C@@H]1CCCN1C(=O)CNC(=O)CNC(=O)[C@H](C)NC(=O)[C@H](CC(C)C)NC(=O)[C@H](CC(C)C)NC(=O)[C@H](Cc1c[nH]c2ccccc12)NC(=O)[C@H](CC(N)=O)NC(=O)[C@@H](NC(=O)[C@H](Cc1ccccc1)NC(=O)[C@H](CCC(=O)O)NC(=O)C(C)(C)NC(=O)[C@H](C)NC(=O)[C@H](C)NC(=O)[C@H](CCC(N)=O)NC(=O)[C@H](CCCCN)NC(=O)[C@H](CC(=O)O)NC(=O)[C@H](CC(C)C)NC(=O)[C@H](Cc1ccc(O)cc1)NC(=O)[C@@H](NC(=O)[C@H](CO)NC(=O)[C@H](Cc1ccc(O)cc1)NC(=O)[C@H](CC(=O)O)NC(=O)[C@H](CO)NC(=O)[C@@H](NC(=O)[C@H](Cc1ccccc1)NC(=O)[C@@H](NC(=O)CNC(=O)[C@H](CCC(=O)O)NC(=O)CSCC(=O)NCCN1C[C@@H](C)CC1=O)[C@@H](C)O)[C@@H](C)O)[C@@H](C)CC)C(C)C)C(N)=O)C(=O)O (single isomer, unassigned) [Compound 64]	97	97	35	35				
CCCCCCCCCCCCCCCC(=O)N[C@@H](CCC(=O)NCCCC[C@H](NC(=O)[C@H](CO)NC(=O)[C@@H]1CCCN1C(=O)[C@@H]1CCCN1C(=O)[C@@H]1CCCN1C(=O)[C@H](C)NC(=O)CNC(=O)[C@H](CO)NC(=O)[C@H](CO)NC(=O)[C@@H]1CCCN1C(=O)CNC(=O)CNC(=O)[C@H](C)NC(=O)[C@H](CC(C)C)NC(=O)[C@H](CC(C)C)NC(=O)[C@H](Cc1c[nH]c2ccccc12)NC(=O)[C@H](CC(N)=O)NC(=O)[C@@H](NC(=O)[C@H](Cc1ccccc1)NC(=O)[C@H](CCC(=O)O)NC(=O)C(C)(C)NC(=O)[C@H](C)NC(=O)[C@H](C)NC(=O)[C@H](CCC(N)=O)NC(=O)[C@H](CCCCN)NC(=O)[C@H](CC(=O)O)NC(=O)[C@H](CC(C)C)NC(=O)[C@H](Cc1ccc(O)cc1)NC(=O)[C@@H](NC(=O)[C@H](CO)NC(=O)[C@H](Cc1ccc(O)cc1)NC(=O)[C@H](CC(=O)O)NC(=O)[C@H](CO)NC(=O)[C@@H](NC(=O)[C@H](Cc1ccccc1)NC(=O)[C@@H](NC(=O)CNC(=O)[C@H](CCC(=O)O)NC(=O)CSCC(=O)NCCN1C(=O)CSC1=O)[C@@H](C)O)[C@@H](C)O)[C@@H](C)CC)C(C)C)C(=O)O)C(=O)O [Compound 199]		92		78	0.1 to 1	1 to 10		
CCCCCCCCCCCCCCCC(=O)N[C@@H](CCC(=O)NCCCC[C@H](NC(=O)[C@H](CO)NC(=O)[C@@H]1CCCN1C(=O)[C@@H]1CCCN1C(=O)[C@@H]1CCCN1C(=O)[C@H](C)NC(=O)CNC(=O)[C@H](CO)NC(=O)[C@H](CO)NC(=O)[C@@H]1CCCN1C(=O)CNC(=O)CNC(=O)[C@H](C)NC(=O)[C@H](CC(C)C)NC(=O)[C@H](CC(C)C)NC(=O)[C@H](Cc1c[nH]c2ccccc12)NC(=O)[C@H](CC(N)=O)NC(=O)[C@@H](NC(=O)[C@H](Cc1ccccc1)NC(=O)[C@H](CCC(=O)O)NC(=O)C(C)(C)NC(=O)[C@H](C)NC(=O)[C@H](C)NC(=O)[C@H](CCC(N)=O)NC(=O)[C@H](CCCCN)NC(=O)[C@H](CC(=O)O)NC(=O)[C@H](CC(C)C)NC(=O)[C@H](Cc1ccc(O)cc1)NC(=O)[C@@H](NC(=O)[C@H](CO)NC(=O)[C@H](Cc1ccc(O)cc1)NC(=O)[C@H](CC(=O)O)NC(=O)[C@H](CO)NC(=O)[C@@H](NC(=O)[C@H](Cc1ccccc1)NC(=O)[C@@H](NC(=O)CNC(=O)[C@H](CCC(=O)O)NC(=O)CSCC(=O)NCCN1C(=O)CNC1=O)[C@@H](C)O)[C@@H](C)O)[C@@H](C)CC)C(C)C)C(N)=O)C(=O)O [Compound 84]	107	107	53	53	0.1 to 1	1 to 10	0.1 to 1	1 to 10
CCCCCCCCCCCCCCCC(=O)N[C@@H](CCC(=O)NCCCC[C@H](NC(=O)[C@H](CO)NC(=O)[C@@H]1CCCN1C(=O)[C@@H]1CCCN1C(=O)[C@@H]1CCCN1C(=O)[C@H](C)NC(=O)CNC(=O)[C@H](CO)NC(=O)[C@H](CO)NC(=O)[C@@H]1CCCN1C(=O)CNC(=O)CNC(=O)[C@H](C)NC(=O)[C@H](CC(C)C)NC(=O)[C@H](CC(C)C)NC(=O)[C@H](Cc1c[nH]c2ccccc12)NC(=O)[C@H](CC(N)=O)NC(=O)[C@@H](NC(=O)[C@H](Cc1ccccc1)NC(=O)[C@H](CCC(=O)O)NC(=O)C(C)(C)NC(=O)[C@H](C)NC(=O)[C@H](C)NC(=O)[C@H](CCC(N)=O)NC(=O)[C@H](CCCCN)NC(=O)[C@H](CC(=O)O)NC(=O)[C@H](CC(C)C)NC(=O)[C@H](Cc1ccc(O)cc1)NC(=O)[C@@H](NC(=O)[C@H](CO)NC(=O)[C@H](Cc1ccc(O)cc1)NC(=O)[C@H](CC(=O)O)NC(=O)[C@H](CO)NC(=O)[C@@H](NC(=O)[C@H](Cc1ccccc1)NC(=O)[C@@H](NC(=O)CNC(=O)[C@H](CCC(=O)O)NC(=O)CSCC(=O)NCCN1CCC[C@H](C)C1=O)[C@@H](C)O)[C@@H](C)O)[C@@H](C)CC)C(C)C)C(N)=O)C(=O)O (single isomer, unassigned) [Compound 207]				68				
CCCCCCCCCCCCCCCC(=O)N[C@@H](CCC(=O)NCCCC[C@H](NC(=O)[C@H](CO)NC(=O)[C@@H]1CCCN1C(=O)[C@@H]1CCCN1C(=O)[C@@H]1CCCN1C(=O)[C@H](C)NC(=O)CNC(=O)[C@H](CO)NC(=O)[C@H](CO)NC(=O)[C@@H]1CCCN1C(=O)CNC(=O)CNC(=O)[C@H](C)NC(=O)[C@H](CC(C)C)NC(=O)[C@H](CC(C)C)NC(=O)[C@H](Cc1c[nH]c2ccccc12)NC(=O)[C@H](CC(N)=O)NC(=O)[C@@H](NC(=O)[C@H](Cc1ccccc1)NC(=O)[C@H](CCC(=O)O)NC(=O)C(C)(C)NC(=O)[C@H](C)NC(=O)[C@H](C)NC(=O)[C@H](CCC(N)=O)NC(=O)[C@H](CCCCN)NC(=O)[C@H](CC(=O)O)NC(=O)[C@H](CC(C)C)NC(=O)[C@H](Cc1ccc(O)cc1)NC(=O)[C@@H](NC(=O)[C@H](CO)NC(=O)[C@H](Cc1ccc(O)cc1)NC(=O)[C@H](CC(=O)O)NC(=O)[C@H](CO)NC(=O)[C@@H](NC(=O)[C@H](Cc1ccccc1)NC(=O)[C@@H](NC(=O)CNC(=O)[C@H](CCC(=O)O)NC(=O)CSCC(=O)NCCN1CC[C@@H](O)CC1=O)[C@@H](C)O)[C@@H](C)O)[C@@H](C)CC)C(C)C)C(N)=O)C(=O)O (single isomer, unassigned) [Compound 203]				44				
CCCCCCCCCCCCCCCC(=O)N[C@@H](CCC(=O)NCCCC[C@H](NC(=O)[C@H](CO)NC(=O)[C@@H]1CCCN1C(=O)[C@@H]1CCCN1C(=O)[C@@H]1CCCN1C(=O)[C@H](C)NC(=O)CNC(=O)[C@H](CO)NC(=O)[C@H](CO)NC(=O)[C@@H]1CCCN1C(=O)CNC(=O)CNC(=O)[C@H](C)NC(=O)[C@H](CC(C)C)NC(=O)[C@H](CC(C)C)NC(=O)[C@H](Cc1c[nH]c2ccccc12)NC(=O)[C@H](CC(N)=O)NC(=O)[C@@H](NC(=O)[C@H](Cc1ccccc1)NC(=O)[C@H](CCC(=O)O)NC(=O)C(C)(C)NC(=O)[C@H](C)NC(=O)[C@H](C)NC(=O)[C@H](CCC(N)=O)NC(=O)[C@H](CCCCN)NC(=O)[C@H](CC(=O)O)NC(=O)[C@H](CC(C)C)NC(=O)[C@H](Cc1ccc(O)cc1)NC(=O)[C@@H](NC(=O)[C@H](CO)NC(=O)[C@H](Cc1ccc(O)cc1)NC(=O)[C@H](CC(=O)O)NC(=O)[C@H](CO)NC(=O)[C@@H](NC(=O)[C@H](Cc1ccccc1)NC(=O)[C@@H](NC(=O)CNC(=O)[C@H](CCC(=O)O)NC(=O)CSCC(=O)NCCN1CCC[C@@H](C)C1=O)[C@@H](C)O)[C@@H](C)O)[C@@H](C)CC)C(C)C)C(N)=O)C(=O)O (single isomer, unassigned) [Compound 208]				59				
